From US9919053B2, “Cabazitaxel composition” (SUPRATEK PHARMA INC., priority 2012, dated 2018)
In brackets after ≈: the same amount, converted by molar mass. Like-named read-outs stand apart in the source and are kept apart here.

Legend:
[1] = Equilibrium solubility of cabazitaxel in aqueous SBECD; format: physicochemical; conditions: aqueous SBECD solution, 23 °C, aqueous with cosolvent or surfactant or cyclodextrin, thermodynamic from solid, read-out: Cabazitaxel concentration (equilibrium solubility)
Experimental: Excess of cabazitael was mixed with aqueous SBECD solutions for 16 hours at 23° C. The resulting suspension was filtered through a 0.22 μm filter, and the clear filtrate solution was analyzed by HPLC.

[2] = Stability of solution of cabazitaxel in aqueous SBECD (HPLC concentration over time); format: physicochemical; conditions: 23° C.
Experimental: A solution containing 2.02 mg/mL cabazitaxel in 20% aqueous SBECD was prepared by sequential dissolving SBECD in water, and cabazitaxel in the resulting solution, followed by filtration through a 0.22 μm filter. Portions of the solution was subsequently diluted with water to form three solutions having the cabazitaxel concentration listed in the Table below, respectively. The solutions were incubated at temperature 23° C. and at selected time points were analyzed using the HPLC. All solutions were stable.

Work on `CO[C@H]1C(=O)[C@]2(C)[C@@H](OC)C[C@H]3OC[C@@]3(OC(C)=O)[C@H]2[C@H](OC(=O)c2ccccc2)[C@]2(O)C[C@H](OC(=O)[C@H](O)[C@@H](NC(=O)OC(C)(C)C)c3ccccc3)C(C)=C1C2(C)C` [cabazitaxel, (1S,2S,3R,4S,7R,9S,10S,12R,15S)-4-(Acetyloxy)-15-{[(2R,3S)-3-{[(tert-butoxy)carbonyl]amino}-2-hydroxy-3-phenylpropanoyl]oxy}-1-hydroxy-9,12-dimethoxy-10,14,17,17-tetramethyl-11-oxo-6-oxatetracyclo[11.3.1.^03,10.0^4,7]heptadec-13-ene-2-yl benzoate] yielded a solubility thermodynamic at 16 h ([1]; aqueous SBECD 1%) of 270 µg/mL (≈ 323 µM), a solubility thermodynamic at 16 h ([1]; aqueous SBECD 2%) of 460 µg/mL (≈ 550 µM) and a solubility thermodynamic at 16 h ([1]; aqueous SBECD 10%) of 990 µg/mL (≈ 1180 µM). The solubility thermodynamic at 16 h ([1]; aqueous SBECD 20%) was 2280 µg/mL (≈ 2730 µM), the solubility thermodynamic at 16 h ([1]; aqueous SBECD 40%) was 4170 µg/mL (≈ 4990 µM) and the Cabazitaxel concentration ([2]; first dilution (0.098 mg/mL at 0 h) of 2.02 mg/mL in 20% SBECD, time 0 hours) was 0.098 mg/mL. For the same molecule, the Cabazitaxel concentration ([2]; first dilution (0.098 mg/mL at 0 h), time 11 hours) was 0.099 mg/mL, the Cabazitaxel concentration ([2]; first dilution (0.098 mg/mL at 0 h), time 24.5 hours) was 0.099 mg/mL and the Cabazitaxel concentration ([2]; first dilution (0.098 mg/mL at 0 h), time 36 hours) was 0.098 mg/mL. The Cabazitaxel concentration ([2]; first dilution (0.098 mg/mL at 0 h), time 45 hours) was 0.098 mg/mL, the Cabazitaxel concentration ([2]; first dilution (0.098 mg/mL at 0 h), time 100 hours) was 0.097 mg/mL and the Cabazitaxel concentration ([2]; first dilution (0.098 mg/mL at 0 h), time 120 hours) was 0.097 mg/mL. The Cabazitaxel concentration ([2]; second dilution (0.268 mg/mL at 0 h) of 2.02 mg/mL in 20% SBECD, time 0 hours) was 0.268 mg/mL, the Cabazitaxel concentration ([2]; second dilution (0.268 mg/mL at 0 h), time 11 hours) was 0.268 mg/mL and the Cabazitaxel concentration ([2]; second dilution (0.268 mg/mL at 0 h), time 24.5 hours) was 0.269 mg/mL. For the same molecule, the Cabazitaxel concentration ([2]; second dilution (0.268 mg/mL at 0 h), time 36 hours) was 0.268 mg/mL, the Cabazitaxel concentration ([2]; second dilution (0.268 mg/mL at 0 h), time 45 hours) was 0.268 mg/mL and the Cabazitaxel concentration ([2]; second dilution (0.268 mg/mL at 0 h), time 100 hours) was 0.263 mg/mL. For the same molecule, the Cabazitaxel concentration ([2]; second dilution (0.268 mg/mL at 0 h), time 120 hours) was 0.266 mg/mL, the Cabazitaxel concentration ([2]; third dilution (0.510 mg/mL at 0 h) of 2.02 mg/mL in 20% SBECD, time 0 hours) was 0.510 mg/mL and the Cabazitaxel concentration ([2]; third dilution (0.510 mg/mL at 0 h), time 11 hours) was 0.515 mg/mL. For the same molecule, the Cabazitaxel concentration ([2]; third dilution (0.510 mg/mL at 0 h), time 24.5 hours) was 0.518 mg/mL, the Cabazitaxel concentration ([2]; third dilution (0.510 mg/mL at 0 h), time 36 hours) was 0.512 mg/mL and the Cabazitaxel concentration ([2]; third dilution (0.510 mg/mL at 0 h), time 45 hours) was 0.517 mg/mL. The Cabazitaxel concentration ([2]; third dilution (0.510 mg/mL at 0 h), time 100 hours) was 0.512 mg/mL and the Cabazitaxel concentration ([2]; third dilution (0.510 mg/mL at 0 h), time 120 hours) was 0.518 mg/mL.
